This assay relates to Halo-PCNA labeled U2OS cells. Briefly: Cell cycle phase assignment by machine learning model in Halo-PCNA U2OS cells. To be noted: 2 mM Thymidine (S-phase block) or 10 mM RO-3306 (G2-M block). The assay is classed as cell-based. On the procedure: FIGS. 20A-20F illustrate that OLS can be applied to capture the inter and intracellular heterogeneity of single protein dynamics. FIG. 20A depicts the analysis of sources of variance in SMT for KEAP1 measured under either OLS or HILO illumination. The contribution of cell to cell variation is 17-32 fold greater than that of FOV level or well to well variances, respectively. FIG. 20B depicts representative images of Halo-PCNA labeled cells treated with 2 mM Thymidine or 10 mM RO-3306 (top). Cell cycle prediction from a machine learning (ML) model used to color cell by cycle phase (bottom). FIG. 20C depicts the quantification of the fraction of cells in each cell phase in response to cycle block treatments in FIG. 20B. The following number of cells were analyzed for each condition: 34,067 for DMSO, 3,831 for RO-3306 and 6,044 for thymidine. […]
Time-lapse microscopy was conducted on Halo-PCNA labeled with 50 nM JFX650, to achieve near-saturating labeling, for 12 hours at 12 frames per hour (FIG. 21A). […] When cells in each cell phase were analyzed separately, it became apparent that the slow-moving population of PCNA was exclusively found in cell predicted to be in S-phase and that there was a marked decrease in the fast-moving population (FIG. 20E). […]
Cell cycle as provided above can be automatically determined using an image (e.g., an image of JF549-labeled PCNA). […]

Turning to `Cc1cn([C@H]2C[C@H](O)[C@@H](CO)O2)c(=O)[nH]c1=O` [thymidine], the “fraction of cells assigned to cell cycle phases” value is given as “expected enrichment in the fraction of cells assigned to the respective cell phases”. As for `O=C1NC(=NCc2cccs2)S/C1=C\c1ccc2ncccc2c1` [RO-3306], the entry is “expected enrichment in the fraction of cells assigned to the respective cell phases”.

Values taken from patent US20250314641A1, “OBLIQUE LINE SCANNER SYSTEMS AND METHODS FOR HIGH THROUGHPUT SINGLE MOLECULE TRACKING IN LIVING CELLS” (EIKON THERAPEUTICS, INC., priority 2022, published 2025).
